Assay results: US20230053540A1, “TREATMENT OF LIVER INJURY” (Massachusetts Institute of Technology, priority 2019, published 2023)

Tested on: hepatocytes
Test: Seq-Well scRNA-Seq of hepatocytes after APAP overdose (signature scores, DEG vs untreated)
Assay type: in vivo, mouse
[1] = time point A24 vs untreated (UT)

CC(=O)Nc1ccc(O)cc1 [APAP, acetaminophen]
Psme4 pct.1 (time point A24): 0.58 | Ptprf pct.1 (time point A24): 0.588 | Raf13 pct.1 (time point A24): 0.612 | Ranbp2 pct.1 (time point A24): 0.484 | Rarres2 pct.1 (time point A24): 0.83 | Rpl13 pct.1 (time point A24): 0.306 | Rplp1 pct.1 (time point A24): 0.597 | Rps9 pct.1 (time point A24): 0.519 | Rps15 pct.1 (time point A24): 0.379 | Sbno1 pct.1 (time point A24): 0.36 | Sc4mol pct.1 (time point A24): 0.5 | Sco2 pct.1 (time point A24): 0.346 | Sec31a pct.1 (time point A24): 0.462 | Selenbp1 pct.1 (time point A24): 0.563 | Sh3bgrl pct.1 (time point A24): 0.512 | Slc38a10 pct.1 (time point A24): 0.449 | Slc39a14 pct.1 (time point A24): 0.495 | Srebf1 pct.1 (time point A24): 0.439 | Srp72 pct.1 (time point A24): 0.597 | Srpr pct.1 (time point A24): 0.532 | Stat3 pct.1 (time point A24): 0.459 | Stt3b pct.1 (time point A24): 0.485 | Surf4 pct.1 (time point A24): 0.656 | Tmem243 pct.1 (time point A24): 0.407 | Tob1 pct.1 (time point A24): 0.565 | Trib1 pct.1 (time point A24): 0.455 | Trip12 pct.1 (time point A24): 0.504 | Txndc5 pct.1 (time point A24): 0.48 | Txnrd1 pct.1 (time point A24): 0.564 | Uggt1 pct.1 (time point A24): 0.385 | Uqcr11 pct.1 (time point A24): 0.769 | Vkorc1 pct.1 (time point A24): 0.38 | Xiap pct.1 (time point A24): 0.504 | Zbtb20 pct.1 (time point A24): 0.566 | Adck3 avg_logFC [1]: −0.2825 | Arhgap5 avg_logFC [1]: 0.2952 | Arhgef12 avg_logFC [1]: 0.3047 | Arl5a avg_logFC [1]: 0.2648 | Atp1a1 avg_logFC [1]: 0.27 | Atp5e avg_logFC [1]: −0.3136 | Atp5f1 avg_logFC [1]: −0.2872 | Atp6v1f avg_logFC [1]: −0.2529 | Atp11c avg_logFC [1]: 0.2605 | Atp13a3 avg_logFC [1]: 0.3037 | Azin1 avg_logFC [1]: 0.2701 | Bnip3 avg_logFC [1]: −0.2928 | Brd2 avg_logFC [1]: 0.2664 | Bzw1 avg_logFC [1]: 0.2841 | Cald1 avg_logFC [1]: 0.2589 | Caprin1 avg_logFC [1]: 0.2628 | Ces3b avg_logFC [1]: −0.2867 | Copb2 avg_logFC [1]: 0.2839 | Copz1 avg_logFC [1]: 0.2577 | Cox7b avg_logFC [1]: −0.2674 | Cpne3 avg_logFC [1]: 0.258 | Ctnnb1 avg_logFC [1]: 0.2957 | Cyp4a14 avg_logFC [1]: −0.3729 | Cyp27a1 avg_logFC [1]: −0.2516 | Ddost avg_logFC [1]: 0.2504 | Dennd5b avg_logFC [1]: 0.2935 | Deptor avg_logFC [1]: 0.2606 | Dnajb9 avg_logFC [1]: 0.2586 | Dnajb11 avg_logFC [1]: 0.3154 | Eci1 avg_logFC [1]: −0.2764 | Edem1 avg_logFC [1]: 0.2869 | Ehhadh avg_logFC [1]: −0.2505 | Eif4b avg_logFC [1]: 0.256 | Ell2 avg_logFC [1]: 0.2881 | Eprs avg_logFC [1]: 0.3013 | Erbb2ip avg_logFC [1]: 0.2797 | Erp44 avg_logFC [1]: 0.2795 | Esd avg_logFC [1]: −0.2538 | Fam120a avg_logFC [1]: 0.28 | Fasn avg_logFC [1]: 0.2914 | Fcgrt avg_logFC [1]: −0.2693 | Gch1 avg_logFC [1]: −0.2825 | Gm23935 avg_logFC [1]: 0.7213 | Gm24245 avg_logFC [1]: 0.4242 | Golga4 avg_logFC [1]: 0.2718 | Gpam avg_logFC [1]: 0.2504 | Grlf1 avg_logFC [1]: 0.295 | Gstm3 avg_logFC [1]: −0.3186 | H6pd avg_logFC [1]: 0.2614 | Id3 avg_logFC [1]: −0.3511 | Ide avg_logFC [1]: 0.2517 | Iqgap2 avg_logFC [1]: 0.2547 | Ireb2 avg_logFC [1]: 0.2657 | Jak1 avg_logFC [1]: 0.2541 | Lasp1 avg_logFC [1]: 0.253 | Lgr4 avg_logFC [1]: 0.269 | Lpin2 avg_logFC [1]: 0.2776 | Macf1 avg_logFC [1]: 0.2617 | Magt1 avg_logFC [1]: 0.2633 | Man2a1 avg_logFC [1]: 0.2833 | Mbnl1 avg_logFC [1]: 0.2502 | Met avg_logFC [1]: 0.2883 | Mt1 avg_logFC [1]: −0.3482 | Mtss1 avg_logFC [1]: 0.2876 | Nadk2 avg_logFC [1]: 0.2579 | Narf avg_logFC [1]: 0.2629 | Ndufa6 avg_logFC [1]: −0.3068 | Ndufb6 avg_logFC [1]: −0.3064 | Ndufc2 avg_logFC [1]: −0.308 | Nop10 avg_logFC [1]: −0.2649 | Nr1i3 avg_logFC [1]: −0.2821 | Nrp1 avg_logFC [1]: 0.3341 | Osbp19 avg_logFC [1]: 0.2788 | Osbpl1a avg_logFC [1]: 0.2728 | Ostc avg_logFC [1]: 0.2658 | Pik3c2a avg_logFC [1]: 0.2594 | Plin5 avg_logFC [1]: −0.2778 | Prdx4 avg_logFC [1]: −0.3074 | Prdx5 avg_logFC [1]: −0.2609 | Prkaa2 avg_logFC [1]: 0.2636 | Prox1 avg_logFC [1]: 0.2663 | Proz avg_logFC [1]: 0.2632 | Psme4 avg_logFC [1]: 0.2626 | Ptprf avg_logFC [1]: 0.3071 | Raf13 avg_logFC [1]: 0.2553 | Ranbp2 avg_logFC [1]: 0.2659 | Rarres2 avg_logFC [1]: −0.2666 | Rpl13 avg_logFC [1]: −0.2997 | Rplp1 avg_logFC [1]: −0.2866 | Rps9 avg_logFC [1]: −0.314 | Rps15 avg_logFC [1]: −0.3561 | Sbno1 avg_logFC [1]: 0.2505 | Sc4mol avg_logFC [1]: −0.2735 | Sco2 avg_logFC [1]: −0.2929 | Sec31a avg_logFC [1]: 0.263 | Selenbp1 avg_logFC [1]: −0.28 | Sh3bgrl avg_logFC [1]: 0.2513 | Slc38a10 avg_logFC [1]: 0.2855 | Slc39a14 avg_logFC [1]: 0.323 | Srebf1 avg_logFC [1]: 0.2762 | Srp72 avg_logFC [1]: 0.3107 | Srpr avg_logFC [1]: 0.3052 | Stat3 avg_logFC [1]: 0.2974 | Stt3b avg_logFC [1]: 0.3194 | Surf4 avg_logFC [1]: 0.2586 | Tmem243 avg_logFC [1]: −0.2656 | Tob1 avg_logFC [1]: 0.3129 | Trib1 avg_logFC [1]: 0.2875 | Trip12 avg_logFC [1]: 0.3283 | Txndc5 avg_logFC [1]: 0.2901 | Uggt1 avg_logFC [1]: 0.2845 | Uqcr11 avg_logFC [1]: −0.2632 | Vkorc1 avg_logFC [1]: −0.2974 | Xiap avg_logFC [1]: 0.2602 | Zbtb20 avg_logFC [1]: 0.3791 | pct.1 Acsl1 (time point A48A96): 0.977 | pct.1 Aldh3a2 (time point A48A96): 0.592 | pct.1 Atp1a1 (time point A48A96): 0.701 | pct.1 Atp5d (time point A48A96): 0.866 | pct.1 C6 (time point A48A96): 0.653 | pct.1 Ces1e (time point A48A96): 0.791 | pct.1 Ctsd (time point A48A96): 0.831 | pct.1 Cyp4a12a (time point A48A96): 0.509 | pct.1 Ech1 (time point A48A96): 0.951 | pct.1 F5 (time point A48A96): 0.881 | pct.1 F9 (time point A48A96): 0.836 | pct.1 F12 (time point A48A96): 0.922 | pct.1 Fcgrt (time point A48A96): 0.806 | pct.1 Fn1 (time point A48A96): 0.932 | pct.1 Ftl1 (time point A48A96): 0.438 | pct.1 Gabarapl1 (time point A48A96): 0.917 | pct.1 Gclm (time point A48A96): 0.893 | pct.1 Glul (time point A48A96): 0.257 | pct.1 Gm4076 (time point A48A96): 0.047 | pct.1 Gm20594 (time point A48A96): 0.222 | pct.1 Gsta2 (time point A48A96): 0.583 | pct.1 Hadha (time point A48A96): 0.895 | pct.1 Hal (time point A48A96): 0.824 | pct.1 Hgfac (time point A48A96): 0.682 | pct.1 Hsd17b4 (time point A48A96): 0.943 | pct.1 Ifitm3 (time point A48A96): 0.823 | pct.1 Inmt (time point A48A96): 0.935 | pct.1 Lpgat1 (time point A48A96): 0.747 | pct.1 Lpin1 (time point A48A96): 0.515 | pct.1 Ndufb2 (time point A48A96): 0.814 | pct.1 Park7 (time point A48A96): 0.902 | pct.1 Pck1 (time point A48A96): 0.998 | pct.1 Pipox (time point A48A96): 0.774 | pct.1 Ppp2r5a (time point A48A96): 0.803 | pct.1 Ptms (time point A48A96): 0.857 | pct.1 Rarres1 (time point A48A96): 0.327 | pct.1 Rpl32 (time point A48A96): 0.766 | pct.1 Rpl41 (time point A48A96): 0.304 | pct.1 Sardh (time point A48A96): 0.939 | pct.1 Sdhd (time point A48A96): 0.837 | pct.1 Sds (time point A48A96): 0.671 | pct.1 Sec61a1 (time point A48A96): 0.7 | pct.1 Serpina12 (time point A48A96): 0.38 | pct.1 Sfxn1 (time point A48A96): 0.702 | pct.1 Slc2a2 (time point A48A96): 0.716 | pct.1 Slc37a4 (time point A48A96): 0.717 | pct.1 Tmem106b (time point A48A96): 0.787 | pct.1 Ubb (time point A48A96): 0.465 | pct.1 Ubxn4 (time point A48A96): 0.802 | pct.1 Upb1 (time point A48A96): 0.895 | pct.1 Usmg5 (time point A48A96): 0.677 | pct.1 mmu-mir-6236 (time point A48A96): 0.859 | pct.1 mt-Atp6 (time point A48A96): 0.326
